Read-outs that look alike come from different tables or passages of the source.
Legend:
[1] = target: human PGP membranes (PGP-associated ATPase) (Homo sapiens, UniProt P08183); details: for ATPase Activity: orthovanadate-sensitive; for ATPase Activity, basal activity subtracted: human, 20 min
Experimental: The DMSO concentration (1.0%) was constant for all conditions within the experiment.
The test substances were incubated in the PGP membranes and supplemented with MgATP, with and without sodium orthovanadate present. Orthovanadate inhibits PGP by trapping MgADP in the nucleotide binding site. Thus, the ATPase activity measured in the presence of orthovanadate represents non-PGP ATPase activity and was subtracted from the activity generated without orthovanadate to yield ATPase activity.
(§1) ATPase assays were conducted in 96-well microtiter plates. A 0.06 mL reaction mixture containing 40 μg PGP membranes, test substance, and 4 mM MgATP, in buffer containing 50 mM Tris-MES, 2 mM EGTA, 50 mM KCl, 2 mM dithiothreitol, and 5 mM sodium azide, plus organic solvent was incubated at 37° C. for 20 minutes. […] Identical reaction mixtures containing 100 μM sodium orthovanadate were assayed in parallel. The reactions were stopped by the addition of 30 μl of 10% SDS+Antifoam A. The incubations were followed with addition of 200 μl of 35 mM Ammonium Molybdate in 15 mM Zinc Acetate: 10% Ascorbic Acid (1:4) and incubated for an additional 20 minutes at 37° C. Additionally, 0.06 mL aliquots of potassium phosphate standards prepared in the buffer described above, were incubated in the plates containing the test and control substances, with SDS and detection reagent added. The liberation of inorganic phosphate was detected by its absorbance at 800 nm and quantitated by comparing the absorbance to a phosphate standard curve. The concentration dependence of the PGP was analyzed for evidence of saturation of PGP-associated ATPase activity, and apparent kinetic parameters were calculated by non-linear regression.
as §1, with “plates.” for “plates. A 0.06 mL reaction mixture containing 40 μg PGP membranes, test substance, and 4 mM MgATP, in buffer containing 50 mM Tris-MES, 2 mM EGTA, 50 mM KCl, 2 mM dithiothreitol, and 5 mM sodium azide, plus organic solvent was incubated at 37° C. for 20 minutes.”, “activity.” for “activity, and apparent kinetic parameters were calculated by non-linear regression.”
as §1, with “plates.” for “plates. A 0.06 mL reaction mixture containing 40 μg PGP membranes, test substance, and 4 mM MgATP, in buffer containing 50 mM Tris-MES, 2 mM EGTA, 50 mM KCl, 2 mM dithiothreitol, and 5 mM sodium azide, plus organic solvent was incubated at 37° C. for 20 minutes.”

human PGP [2] = target: T1, human PGP (Homo sapiens, UniProt P08183); assay: Inhibition of human PGP-mediated [3H]-digoxin transport in 15B-J (LLC-PK1 expressing human PGP) monolayers; details: for inhibition of PGP-mediated digoxin transport (in words): 5 μM [3H]-digoxin, 15B-J monolayers; for Activity 2: high capacity, low affinity binding site; for Activity 1: low capacity, high affinity binding site
[3] = target: human PGP (P-glycoprotein) (Homo sapiens, UniProt P08183); assay: as above; details: human; for inhibition at 90 min, 0.0001 μM: 0.0001 μM test substance; for inhibition at 90 min, 0.0003 μM: 0.0003 μM test substance; for inhibition at 90 min, 0.001 μM: 0.001 μM test substance; for inhibition at 90 min, 0.003 μM: 0.003 μM test substance; for inhibition at 90 min, 0.01 μM: 0.01 μM test substance; for inhibition at 90 min, 0.03 μM: 0.03 μM test substance; for inhibition at 90 min, 0.1 μM: 0.1 μM test substance; for inhibition at 90 min, 0.3 μM: 0.3 μM test substance; for inhibition at 90 min, 1 μM: 1.0 μM test substance; for inhibition at 90 min, 3 μM: 3.0 μM test substance; for inhibition at 90 min, 10 μM: 10 μM test substance; for inhibition at 90 min, 30 μM: 30 μM test substance; for inhibition at 90 min, 100 μM: 100 μM test substance
human PGP [4] = target: T1, human PGP; details: 15B-J vs CLA monolayers
[5] = test system: CLA (control) Monolayer, LLC-PK1 cells; details: 10 μM in donor
[6] = pH 7.2, % Inhibition of Digoxin Transport, 5 μM [3H]-digoxin, 90 min
[7] = pH 7.2, Ketoconazole Normalized % Inhibition of Digoxin Transport, normalized to 25 μM ketoconazole

T1 sequence (P08183 whole entry): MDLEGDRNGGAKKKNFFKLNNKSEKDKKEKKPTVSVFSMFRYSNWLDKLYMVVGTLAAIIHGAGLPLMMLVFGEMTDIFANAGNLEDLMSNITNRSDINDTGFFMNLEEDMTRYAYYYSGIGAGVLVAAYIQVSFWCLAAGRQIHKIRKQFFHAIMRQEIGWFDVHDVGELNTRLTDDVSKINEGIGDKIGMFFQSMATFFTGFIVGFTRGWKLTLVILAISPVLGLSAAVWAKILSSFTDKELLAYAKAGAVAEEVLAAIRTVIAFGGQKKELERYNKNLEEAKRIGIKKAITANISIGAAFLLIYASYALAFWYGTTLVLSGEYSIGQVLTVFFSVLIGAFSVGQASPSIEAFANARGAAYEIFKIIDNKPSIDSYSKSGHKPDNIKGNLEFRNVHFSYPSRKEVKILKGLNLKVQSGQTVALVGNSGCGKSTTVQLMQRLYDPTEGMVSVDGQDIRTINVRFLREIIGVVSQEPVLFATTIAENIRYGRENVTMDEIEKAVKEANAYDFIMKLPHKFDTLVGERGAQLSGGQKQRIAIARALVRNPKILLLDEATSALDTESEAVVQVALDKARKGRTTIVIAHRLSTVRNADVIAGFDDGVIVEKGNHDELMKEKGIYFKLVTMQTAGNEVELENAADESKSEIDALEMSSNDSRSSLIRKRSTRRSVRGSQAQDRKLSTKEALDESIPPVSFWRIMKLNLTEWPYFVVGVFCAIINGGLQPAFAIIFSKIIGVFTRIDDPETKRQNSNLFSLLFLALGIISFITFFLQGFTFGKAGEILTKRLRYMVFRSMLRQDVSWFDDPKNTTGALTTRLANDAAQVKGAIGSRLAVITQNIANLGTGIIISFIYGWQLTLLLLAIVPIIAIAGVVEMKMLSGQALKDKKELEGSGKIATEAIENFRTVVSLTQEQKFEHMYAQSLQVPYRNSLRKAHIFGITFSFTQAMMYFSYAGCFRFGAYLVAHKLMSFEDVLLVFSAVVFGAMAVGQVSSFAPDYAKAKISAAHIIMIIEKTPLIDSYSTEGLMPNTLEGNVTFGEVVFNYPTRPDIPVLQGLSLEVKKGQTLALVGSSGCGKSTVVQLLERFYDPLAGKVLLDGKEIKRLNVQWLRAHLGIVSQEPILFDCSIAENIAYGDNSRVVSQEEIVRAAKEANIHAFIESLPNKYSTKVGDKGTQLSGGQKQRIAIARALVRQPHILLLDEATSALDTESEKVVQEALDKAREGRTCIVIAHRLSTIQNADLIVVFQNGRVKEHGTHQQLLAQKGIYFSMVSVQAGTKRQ
Sequence of human PGP (P-glycoprotein) (P08183 whole entry): as above
Sequence of human PGP membranes (PGP-associated ATPase) (P08183 whole entry): as above

C=C1CC[C@@]2(O)[C@H]3Cc4ccc(O)c5c4[C@@]2(CCN3CC2CC2)[C@H]1O5 [Nalmefene, nalmefene]
ATPase Activity ([1]; 0.003 μM test substance): 2.4 nmol/mg/min | ATPase Activity ([1]; 0.01 μM test substance): 1.3 nmol/mg/min | ATPase Activity ([1]; 0.03 μM test substance): 1.2 nmol/mg/min | ATPase Activity ([1]; 0.1 μM test substance): 1.1 nmol/mg/min | ATPase Activity ([1]; 0.3 μM test substance): 1.9 nmol/mg/min | ATPase Activity ([1]; 1.0 μM test substance): -1.6 nmol/mg/min | ATPase Activity ([1]; 3.0 μM test substance): 0.2 nmol/mg/min | ATPase Activity ([1]; 10 μM test substance): -0.5 nmol/mg/min | ATPase Activity ([1]; 30 μM test substance): 2.3 nmol/mg/min | ATPase Activity ([1]; 100 μM test substance): 3.3 nmol/mg/min | effect on PGP-associated ATPase activity (in words) ([1]; semi-quantitative assay): not to limit the ATPase activity | inhibition of PGP-mediated digoxin transport (in words) (human PGP [2]): increasingly inhibited in response to increasing concentration | Activity 2 (human PGP [2]): 100 µM | Activity 1 (human PGP [2]): 0.3 nM | inhibition at 90 min, 0.0001 μM [3, 6]: 5.2% | inhibition at 90 min, 0.0003 μM [3, 6]: 7.2% | inhibition at 90 min, 0.001 μM [3, 6]: 2.8% | inhibition at 90 min, 0.003 μM [3, 6]: 5.1% | inhibition at 90 min, 0.01 μM [3, 6]: 3.9% | inhibition at 90 min, 0.03 μM [3, 6]: -7.2% | inhibition at 90 min, 0.1 μM [3, 6]: -0.3% | inhibition at 90 min, 0.3 μM [3, 6]: -5.6% | inhibition at 90 min, 1 μM [3, 6]: -2.6% | inhibition at 90 min, 3 μM [3, 6]: 10% | inhibition at 90 min, 10 μM [3, 6]: 13% | inhibition at 90 min, 30 μM [3, 6]: 35% | inhibition at 90 min, 100 μM [3, 6]: 42% | inhibition at 90 min, 0.0001 μM [3, 7]: 7.5% | inhibition at 90 min, 0.0003 μM [3, 7]: 10% | inhibition at 90 min, 0.001 μM [3, 7]: 4% | inhibition at 90 min, 0.003 μM [3, 7]: 7.4% | inhibition at 90 min, 0.01 μM [3, 7]: 7.4% | inhibition at 90 min, 0.03 μM [3, 7]: -10% | inhibition at 90 min, 0.3 μM [3, 7]: -10% | inhibition at 90 min, 1 μM [3, 7]: -3.2% | inhibition at 90 min, 3 μM [3, 7]: 14% | inhibition at 90 min, 10 μM [3, 7]: 19% | inhibition at 90 min, 30 μM [3, 7]: 51% | inhibition at 90 min, 100 μM [3, 7]: 61%

CC(=O)O[C@H]1C(=O)[C@@]2(C)[C@H]([C@H](OC(=O)c3ccccc3)[C@]3(O)C[C@H](OC(=O)[C@H](O)[C@@H](NC(=O)c4ccccc4)c4ccccc4)C(C)=C1C3(C)C)[C@]1(OC(C)=O)CO[C@@H]1C[C@@H]2O [Taxol, taxol]
effect on PGP-associated ATPase activity (in words) [1]: stimulates PGP-associated ATPase activity in a dose dependent manner | ATPase Activity, basal activity subtracted ([1]; 0.007 μM): -0.3 nmol/mg/min | ATPase Activity, basal activity subtracted ([1]; 0.01 μM): -0.4 nmol/mg/min | ATPase Activity, basal activity subtracted ([1]; 0.03 μM): -0.9 nmol/mg/min | ATPase Activity, basal activity subtracted ([1]; 0.05 μM): -0.9 nmol/mg/min | ATPase Activity, basal activity subtracted ([1]; 0.1 μM): -1.6 nmol/mg/min | ATPase Activity, basal activity subtracted ([1]; 0.42 μM): 2.5 nmol/mg/min | ATPase Activity, basal activity subtracted ([1]; 1.67 μM): 11.1 nmol/mg/min | ATPase Activity, basal activity subtracted ([1]; 3.33 μM): 12.8 nmol/mg/min | ATPase Activity, basal activity subtracted ([1]; 6.67 μM): 14.4 nmol/mg/min | transport by human PGP (in words) (human PGP [4]): significantly transported by human PGP

Cc1ccc(NC(=O)c2ccc(CN3CCNCC3)cc2)cc1Nc1nccc(-c2cccnc2)n1 [Gleevec metabolite]
pmoles in Receiver ([5]; A→B, 15 min): 8.4 pmol | pmoles in Receiver ([5]; A→B, 30 min): 2.76 pmol | pmoles in Receiver ([5]; A→B, 60 min): 1.6 pmol | pmoles in Receiver ([5]; A→B, 90 min): 2.0 pmol | pmoles in Receiver ([5]; A→B, 120 min): 1.7 pmol | pmoles in Receiver ([5]; B→A, 15 min): 1.0 pmol | pmoles in Receiver ([5]; B→A, 30 min): 0.86 pmol | pmoles in Receiver ([5]; B→A, 60 min): 0.7 pmol | pmoles in Receiver ([5]; B→A, 90 min): 0.9 pmol | pmoles in Receiver ([5]; B→A, 120 min): 1.9 pmol

C=CCN1CC[C@]23c4c5ccc(O)c4O[C@H]2C(=O)CC[C@@]3(O)[C@H]1C5 [Naloxone, naloxone]
ATPase Activity ([1]; 0.001 μM test substance): -3.8 nmol/mg/min | ATPase Activity ([1]; 0.01 μM test substance): -0.8 nmol/mg/min | ATPase Activity ([1]; 0.03 μM test substance): 0.7 nmol/mg/min | ATPase Activity ([1]; 0.1 μM test substance): 3.6 nmol/mg/min | ATPase Activity ([1]; 0.3 μM test substance): -0.6 nmol/mg/min | ATPase Activity ([1]; 1.0 μM test substance): 0.4 nmol/mg/min | ATPase Activity ([1]; 3.0 μM test substance): 1.7 nmol/mg/min | ATPase Activity ([1]; 10 μM test substance): 2 nmol/mg/min | ATPase Activity ([1]; 30 μM test substance): 1.9 nmol/mg/min | ATPase Activity ([1]; 100 μM test substance): 1.8 nmol/mg/min | effect on PGP-associated ATPase activity (in words) ([1]; semi-quantitative assay): not to limit the ATPase activity | inhibition of PGP-mediated digoxin transport (in words) (human PGP [2]): the inhibition was not concentration-dependent | Activity 2 (human PGP [2]): 30 µM | Activity 1 (human PGP [2]): 1.0 nM | inhibition at 90 min, 0.0001 μM [3, 7]: 6.2% | inhibition at 90 min, 0.0003 μM [3, 7]: 8.4% | inhibition at 90 min, 0.001 μM [3, 7]: 10% | inhibition at 90 min, 0.01 μM [3, 7]: -4.5% | inhibition at 90 min, 0.03 μM [3, 7]: 5.7% | inhibition at 90 min, 0.1 μM [3, 7]: -2.7% | inhibition at 90 min, 1 μM [3, 7]: 7.8% | inhibition at 90 min, 3 μM [3, 7]: -11% | inhibition at 90 min, 10 μM [3, 7]: 0.4% | inhibition at 90 min, 30 μM [3, 7]: 41% | inhibition at 90 min, 100 μM [3, 7]: 37%
